Measured values reported in patent US10221139B2, “Inhibitors of histone demethylases” (Gilead Sciences, Inc., priority 2012, dated 2019).

Tests used:
Type in all cases: biochemical
UTX (KDM6A) = target: T1, UTX (KDM6A) (Homo sapiens, UniProt O15550); assay: Histone lysine demethylase AlphaLISA assay, UTX; details: substrate BK27M3
T1 construct: 919-1401; host or cells: E. coli
Outline: (§1)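 IC50 values come from an AlphaLISA signal: acceptor beads incubated 60 min in the dark, then streptavidin donor beads, both at room temperature. Beforehand, enzyme and compound were preincubated 10 min and the substrate reaction ran at room temperature.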

GASC1 (KDM4C, JMJD2C) = target: T2, GASC1 (KDM4C, JMJD2C) (Homo sapiens, UniProt Q9H3R0); assay: Histone lysine demethylase AlphaLISA assay, GASC1; details: substrate BK9M3
T2 construct: 1-349; host or cells: E. coli
T2 sequence (Q9H3R0 1-349): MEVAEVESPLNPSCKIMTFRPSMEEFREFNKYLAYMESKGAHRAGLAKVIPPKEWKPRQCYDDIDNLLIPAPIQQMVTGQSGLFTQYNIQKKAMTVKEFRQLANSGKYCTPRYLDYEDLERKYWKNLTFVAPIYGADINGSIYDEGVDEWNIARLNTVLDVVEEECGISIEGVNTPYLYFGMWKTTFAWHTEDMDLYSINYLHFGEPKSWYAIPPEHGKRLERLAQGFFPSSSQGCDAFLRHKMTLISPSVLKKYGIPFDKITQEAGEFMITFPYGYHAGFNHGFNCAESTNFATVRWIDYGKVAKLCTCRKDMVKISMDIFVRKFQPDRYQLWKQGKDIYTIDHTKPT
Outline: as §1

JARID1C (KDM5C) = target: T3, JARID1C (KDM5C) (Homo sapiens, UniProt P41229); assay: Histone lysine demethylase AlphaLISA assay, JARID1C; details: substrate H3K4M3B
T3 construct: 2-1560; purchased BPS; host or cells: Bac (baculovirus)
Experimental: (§2) Example 2: Histone Lysine Demethylase AlphaLISA Assays for IC50 Value Determination
(§3) Assays are performed analogously to the protocol described by Perkin Elmer (Roy et al. Perkin Elmer Technical Note: AlphaLISA #12, April 2011).
(§4) Enzymes are dissolved in enzyme buffer and incubated for 10 min before 5 μL is added to 5 μL 3% DMSO solutions of compounds in enzyme buffer. Incubated for another 10 minutes, before 5 μL substrate solution is added and the reaction mixture is incubated at room temperature for the given period. 10 μL acceptor beads, suspended at given dilutions in Epigenetic Buffer (Perkin Elmer AL008) from stock, are added and the suspension is incubated 60 minutes in the dark at room temperature, before 10 μL suspension (at the given dilutions in Epigenetic Buffer) of streptavidin donor beads (Perkin Elmer 6760002) in Epigenetic Buffer is added. After incubation at room temperature in the dark the plates are read. Reaction conditions are seen in Table 2b.

JMJD2B (KDM4B) = target: T4, JMJD2B (KDM4B) (Homo sapiens, UniProt O94953); assay: Histone lysine demethylase AlphaLISA assay, JMJD2B; details: substrate BK9M3, read-out: JMUD2B IC50
T4 construct: 2-500; purchased BPS; host or cells: Bac (baculovirus)
T4 sequence (O94953 2-500): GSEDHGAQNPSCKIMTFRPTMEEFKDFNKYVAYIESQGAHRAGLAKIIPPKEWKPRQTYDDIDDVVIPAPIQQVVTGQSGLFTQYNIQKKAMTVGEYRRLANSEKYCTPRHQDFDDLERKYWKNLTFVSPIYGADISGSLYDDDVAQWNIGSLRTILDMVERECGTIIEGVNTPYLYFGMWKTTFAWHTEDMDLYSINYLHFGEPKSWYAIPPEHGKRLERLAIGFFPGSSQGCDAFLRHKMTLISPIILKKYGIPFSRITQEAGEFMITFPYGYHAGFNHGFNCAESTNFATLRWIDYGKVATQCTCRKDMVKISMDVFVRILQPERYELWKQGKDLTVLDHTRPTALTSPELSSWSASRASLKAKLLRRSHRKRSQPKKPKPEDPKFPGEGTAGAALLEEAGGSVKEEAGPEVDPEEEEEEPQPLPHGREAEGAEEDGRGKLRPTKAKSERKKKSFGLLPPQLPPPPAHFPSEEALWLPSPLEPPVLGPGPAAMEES
Experimental: as §2, §3, §4

PHF8 (KDM7) = target: T5, PHF8 (KDM7) (Homo sapiens, UniProt Q9UPP1); assay: Histone lysine demethylase AlphaLISA assay, PHF8; details: substrate BK9M2
T5 construct: KDM7 (PHF8); BRIC; 1-1322; Bac
Experimental: as §2, §3, §4

JMJD3 (KDM6B) = target: T6, JMJD3 (KDM6B) (Homo sapiens, UniProt O15054); assay: Histone lysine demethylase AlphaLISA assay, JMJD3; details: substrate BK27M3
T6 construct: 1043-end; purchased BPS; host or cells: Bac (baculovirus)
Experimental: as §2, §3, §4

JMJD2A (KDM4A) = target: T7, JMJD2A (KDM4A) (Homo sapiens, UniProt O75164); assay: Histone lysine demethylase AlphaLISA assay, JMJD2A; details: substrate BK9M3
T7 construct: 1-350; purchased BPS, Bioscience, US; host or cells: E. coli
T7 sequence (O75164 1-350): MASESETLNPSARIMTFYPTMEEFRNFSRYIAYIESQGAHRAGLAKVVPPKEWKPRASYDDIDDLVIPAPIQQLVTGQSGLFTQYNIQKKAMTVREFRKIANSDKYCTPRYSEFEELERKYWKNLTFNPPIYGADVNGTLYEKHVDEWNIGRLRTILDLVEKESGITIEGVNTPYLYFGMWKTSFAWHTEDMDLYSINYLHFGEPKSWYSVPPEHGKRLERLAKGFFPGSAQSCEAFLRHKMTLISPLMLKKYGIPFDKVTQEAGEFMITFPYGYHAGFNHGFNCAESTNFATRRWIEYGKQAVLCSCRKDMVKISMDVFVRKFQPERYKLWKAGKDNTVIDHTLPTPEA
Experimental: as §2, §3, §4

PLU1 (KDM5B) = target: T8, PLU1 (KDM5B) (Homo sapiens, UniProt Q9UGL1); assay: Histone lysine demethylase AlphaLISA assay, PLU1; details: substrate H3K4M3B
T8 construct: 1-809; host or cells: E. coli
T8 sequence (Q9UGL1 1-809): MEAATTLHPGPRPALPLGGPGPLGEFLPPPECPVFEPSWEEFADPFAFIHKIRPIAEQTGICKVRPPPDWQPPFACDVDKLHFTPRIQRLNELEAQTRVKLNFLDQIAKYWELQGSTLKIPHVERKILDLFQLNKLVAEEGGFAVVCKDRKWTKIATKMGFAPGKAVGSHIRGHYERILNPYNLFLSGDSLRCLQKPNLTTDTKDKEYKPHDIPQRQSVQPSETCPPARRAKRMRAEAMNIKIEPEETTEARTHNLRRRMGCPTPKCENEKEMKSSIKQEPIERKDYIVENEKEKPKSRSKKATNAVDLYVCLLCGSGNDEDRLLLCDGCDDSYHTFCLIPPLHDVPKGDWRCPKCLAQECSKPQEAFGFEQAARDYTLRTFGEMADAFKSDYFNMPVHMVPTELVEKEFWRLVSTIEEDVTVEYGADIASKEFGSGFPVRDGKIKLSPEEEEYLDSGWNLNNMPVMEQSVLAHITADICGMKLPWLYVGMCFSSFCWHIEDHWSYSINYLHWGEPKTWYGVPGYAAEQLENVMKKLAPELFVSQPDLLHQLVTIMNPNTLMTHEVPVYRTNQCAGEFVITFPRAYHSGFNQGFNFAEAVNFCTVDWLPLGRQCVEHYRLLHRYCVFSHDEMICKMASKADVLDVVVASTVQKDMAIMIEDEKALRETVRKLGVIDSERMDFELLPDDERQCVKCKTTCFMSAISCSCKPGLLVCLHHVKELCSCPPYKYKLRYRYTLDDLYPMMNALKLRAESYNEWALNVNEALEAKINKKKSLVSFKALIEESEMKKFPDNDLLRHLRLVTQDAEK
Outline: as §1

T1 sequence (O15550 919-1401): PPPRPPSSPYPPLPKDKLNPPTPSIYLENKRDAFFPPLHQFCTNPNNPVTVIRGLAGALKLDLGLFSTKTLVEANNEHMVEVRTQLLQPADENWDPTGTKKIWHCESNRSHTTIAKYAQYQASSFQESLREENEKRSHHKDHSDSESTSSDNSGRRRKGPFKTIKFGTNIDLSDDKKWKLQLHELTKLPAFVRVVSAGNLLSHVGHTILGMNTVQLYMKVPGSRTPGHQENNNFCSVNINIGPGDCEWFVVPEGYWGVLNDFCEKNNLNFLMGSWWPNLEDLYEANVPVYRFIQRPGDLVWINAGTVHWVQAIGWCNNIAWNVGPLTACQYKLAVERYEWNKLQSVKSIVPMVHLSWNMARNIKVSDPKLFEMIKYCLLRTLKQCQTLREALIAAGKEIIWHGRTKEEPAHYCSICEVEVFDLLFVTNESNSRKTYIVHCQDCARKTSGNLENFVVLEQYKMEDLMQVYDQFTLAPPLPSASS
T5 sequence (Q9UPP1 37-477 limits assumed): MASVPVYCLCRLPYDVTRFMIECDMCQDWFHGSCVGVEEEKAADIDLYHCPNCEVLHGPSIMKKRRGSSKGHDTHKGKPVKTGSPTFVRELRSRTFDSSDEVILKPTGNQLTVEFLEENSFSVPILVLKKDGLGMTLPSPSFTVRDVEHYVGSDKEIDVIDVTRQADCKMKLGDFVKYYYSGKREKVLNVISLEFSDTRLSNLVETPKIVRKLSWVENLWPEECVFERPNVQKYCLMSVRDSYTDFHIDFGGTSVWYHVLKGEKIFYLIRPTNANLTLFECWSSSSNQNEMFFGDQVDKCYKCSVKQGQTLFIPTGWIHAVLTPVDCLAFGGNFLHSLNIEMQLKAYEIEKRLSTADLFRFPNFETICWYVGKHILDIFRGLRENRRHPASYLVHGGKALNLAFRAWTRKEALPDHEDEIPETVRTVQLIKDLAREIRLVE
T6 sequence (O15054 1043-1682 isoform O15054-1 limits assumed): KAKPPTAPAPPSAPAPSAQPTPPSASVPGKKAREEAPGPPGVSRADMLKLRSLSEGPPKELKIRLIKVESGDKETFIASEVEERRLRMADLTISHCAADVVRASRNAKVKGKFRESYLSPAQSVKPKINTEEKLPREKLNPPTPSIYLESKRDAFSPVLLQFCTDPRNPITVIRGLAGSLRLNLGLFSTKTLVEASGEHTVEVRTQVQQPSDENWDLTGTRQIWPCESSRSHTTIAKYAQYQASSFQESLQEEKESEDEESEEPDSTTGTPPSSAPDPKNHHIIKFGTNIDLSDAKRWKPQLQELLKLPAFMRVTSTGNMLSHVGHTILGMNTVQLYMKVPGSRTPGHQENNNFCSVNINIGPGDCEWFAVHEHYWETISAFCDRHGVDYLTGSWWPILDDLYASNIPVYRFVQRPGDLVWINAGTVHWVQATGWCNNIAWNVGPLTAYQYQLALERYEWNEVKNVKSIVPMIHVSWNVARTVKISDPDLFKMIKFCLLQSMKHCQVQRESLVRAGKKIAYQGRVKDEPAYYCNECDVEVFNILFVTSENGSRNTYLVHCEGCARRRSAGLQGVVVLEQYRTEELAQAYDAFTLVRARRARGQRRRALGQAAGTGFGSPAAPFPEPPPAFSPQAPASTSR
T3 sequence (P41229 2-1560): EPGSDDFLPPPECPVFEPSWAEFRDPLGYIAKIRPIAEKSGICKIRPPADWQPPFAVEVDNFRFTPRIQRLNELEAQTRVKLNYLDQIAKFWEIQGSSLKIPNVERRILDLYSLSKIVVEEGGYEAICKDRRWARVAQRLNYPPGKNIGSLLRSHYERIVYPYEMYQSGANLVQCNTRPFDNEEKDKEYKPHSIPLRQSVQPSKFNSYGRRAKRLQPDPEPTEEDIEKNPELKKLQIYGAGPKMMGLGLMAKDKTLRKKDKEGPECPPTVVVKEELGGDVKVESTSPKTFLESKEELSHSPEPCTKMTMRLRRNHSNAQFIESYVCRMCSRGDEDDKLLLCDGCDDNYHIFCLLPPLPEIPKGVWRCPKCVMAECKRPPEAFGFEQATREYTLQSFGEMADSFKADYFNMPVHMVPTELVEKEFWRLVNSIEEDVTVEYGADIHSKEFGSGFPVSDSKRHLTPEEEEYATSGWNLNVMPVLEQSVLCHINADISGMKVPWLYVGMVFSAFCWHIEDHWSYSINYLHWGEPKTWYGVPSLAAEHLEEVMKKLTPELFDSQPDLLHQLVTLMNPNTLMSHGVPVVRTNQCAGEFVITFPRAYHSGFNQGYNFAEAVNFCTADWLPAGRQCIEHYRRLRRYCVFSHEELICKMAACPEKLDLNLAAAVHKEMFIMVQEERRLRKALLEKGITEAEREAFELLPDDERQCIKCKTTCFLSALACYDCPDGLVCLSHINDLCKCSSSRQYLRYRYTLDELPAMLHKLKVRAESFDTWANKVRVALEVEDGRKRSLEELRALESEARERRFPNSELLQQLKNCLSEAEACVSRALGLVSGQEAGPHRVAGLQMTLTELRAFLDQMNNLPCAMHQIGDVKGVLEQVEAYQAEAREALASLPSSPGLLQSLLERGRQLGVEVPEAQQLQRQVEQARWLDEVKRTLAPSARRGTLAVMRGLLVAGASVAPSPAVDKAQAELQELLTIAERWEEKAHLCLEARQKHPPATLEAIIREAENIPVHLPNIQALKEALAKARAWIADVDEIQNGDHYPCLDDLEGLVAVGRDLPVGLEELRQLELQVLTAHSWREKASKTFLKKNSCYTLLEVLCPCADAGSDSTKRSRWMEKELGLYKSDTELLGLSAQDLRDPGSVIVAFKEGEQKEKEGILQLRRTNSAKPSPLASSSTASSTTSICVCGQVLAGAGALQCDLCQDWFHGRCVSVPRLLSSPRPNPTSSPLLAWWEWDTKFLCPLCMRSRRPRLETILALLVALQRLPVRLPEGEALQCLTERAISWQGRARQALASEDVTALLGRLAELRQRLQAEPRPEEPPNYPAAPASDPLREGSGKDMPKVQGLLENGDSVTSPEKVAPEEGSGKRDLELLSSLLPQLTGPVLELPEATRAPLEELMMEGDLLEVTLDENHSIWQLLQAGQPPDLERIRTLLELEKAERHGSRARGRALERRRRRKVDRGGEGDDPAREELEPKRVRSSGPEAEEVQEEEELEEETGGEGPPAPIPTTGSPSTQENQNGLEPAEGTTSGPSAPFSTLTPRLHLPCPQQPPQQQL

Row | Compound | IC50 (UTX (KDM6A)) [nM] | IC50 (GASC1 (KDM4C, JMJD2C)) [nM] | IC50 (JARID1C (KDM5C)) [nM] | IC50 (JMJD2B (KDM4B)) [nM] | IC50 (PHF8 (KDM7)) [nM] | IC50 (JMJD3 (KDM6B)) [nM] | IC50 (JMJD2A (KDM4A)) [nM] | IC50 (PLU1 (KDM5B)) [nM]
1 | 2-({[(1R)-2-hydroxy-1-{methyl[3-(1-methyl-1H-imidazol-2-yl)propyl]carbamoyl}ethyl]amino}methyl)pyridine-4-carboxylic acid [#37] | ≥ 1000 | < 100 | 100 to 1000 | < 100 | ≥ 1000 | ≥ 1000 | < 100 | 
2 | O=C(O)c1ccnc(CNCC(=O)N2CCCC2)c1 [#13, 2-({[2-oxo-2-(pyrrolidin-1-yl)ethyl]amino}methyl)pyridine-4-carboxylic acid] | ≥ 1000 | < 100 | < 100 | < 100 | 100 to 1000 | ≥ 1000 | < 100 | < 100
3 | CCCCN1CCCC1CCNCc1cc(C(=O)O)ccn1 (stereo not shown) [#34, 2-({[2-(1-butylpyrrolidin-2-yl)ethyl]amino}methyl)pyridine-4-carboxylic acid] | ≥ 1000 | < 100 | < 100 | < 100 | ≥ 1000 | ≥ 1000 | < 100 | < 100

Now from value to compound:

Row | IC50 (UTX (KDM6A)) [nM] | IC50 (GASC1 (KDM4C, JMJD2C)) [nM] | IC50 (JARID1C (KDM5C)) [nM] | IC50 (JMJD2B (KDM4B)) [nM] | IC50 (PHF8 (KDM7)) [nM] | IC50 (JMJD3 (KDM6B)) [nM] | IC50 (JMJD2A (KDM4A)) [nM] | IC50 (PLU1 (KDM5B)) [nM] | Compound
4 | ≥ 1000 | < 100 | < 100 | < 100 | 100 to 1000 | ≥ 1000 |  | < 100 | CCCCN(C)C(=O)CNCc1cc(C(=O)O)ccn1 [#14, 2-[({[butyl(methyl)carbamoyl]methyl}amino)methyl]pyridine-4-carboxylic acid]
5 |  | < 100 | < 100 | < 100 | < 100 |  | < 100 | < 100 | COc1ccccc1CN1CCC(NC(=O)CNCc2cc(C(=O)O)ccn2)CC1 [#29, 2-({[({1-[(2-methoxyphenyl)methyl]piperidin-4-yl}carbamoyl)methyl]amino}methyl)pyridine-4-carboxylic acid]
6 | ≥ 1000 | < 100 | < 100 | < 100 | 100 to 1000 | 100 to 1000 | < 100 | < 100 | CC(C)=CCCC(C)CCN1CCC(NC(=O)CNCc2cc(C(=O)O)ccn2)C1 (stereo not shown) [#35, 2-{[({[1-(3,7-dimethyloct-6-en-1-yl)pyrrolidin-3-yl]carbamoyl}methyl)amino]methyl}pyridine-4-carboxylic acid]
7 | ≥ 1000 | < 100 | < 100 | < 100 | 100 to 1000 | ≥ 1000 | < 100 | < 100 | CCN(CCN(C)C)C(=O)CNCc1cc(C(=O)O)ccn1 [#49, 2-{[({[2-(dimethylamino)ethyl](ethyl)carbamoyl}methyl)amino]methyl}pyridine-4-carboxylic acid]
